# The source made the active and inactive calls. The calls are words filed in the database; no cut-off is given here.
# How the values were obtained:
# Candida albicans = assay: Antifungal activity against Candida albicans after 72 to 96 hrs by twofold serial dilution method; format: functional
# Vibrio cholerae = assay: Antibacterial activity against Vibrio cholerae after 24 hrs by twofold serial dilution method; format: functional
# Candida [1] = assay: Antifungal activity against Candida 51 at 200 ug/ml after 72 to 96 hrs by twofold serial dilution method; format: functional, organism-based
# Pseudomonas aeruginosa = assay: Antibacterial activity against Pseudomonas aeruginosa after 24 hrs by twofold serial dilution method; format: functional
# Staphylococcus aureus [2] = assay: Antibacterial activity against Staphylococcus aureus after 24 hrs by twofold serial dilution method; format: functional
# Candida [3] = assay: Antifungal activity against Candida 6 after 72 to 96 hrs by twofold serial dilution method; format: functional
# Aspergillus flavus [4] = assay: Antifungal activity against Aspergillus flavus after 72 to 96 hrs by twofold serial dilution method; format: functional
# Escherichia coli [5] = assay: Antibacterial activity against Escherichia coli after 24 hrs by twofold serial dilution method; format: functional
# Streptococcus = assay: Antibacterial activity against beta-Hemolytic streptococcus after 24 hrs by twofold serial dilution method; format: functional
# Candida [6] = assay: Antifungal activity against Candida 51 after 72 to 96 hrs by twofold serial dilution method; format: functional
# Escherichia coli [7] = assay: Antibacterial activity against Escherichia coli at 200 ug/ml after 24 hrs by twofold serial dilution method; format: functional, organism-based
# Staphylococcus aureus [8] = assay: Antibacterial activity against Staphylococcus aureus at 200 ug/ml after 24 hrs by twofold serial dilution method; format: functional, organism-based
# Aspergillus flavus [9] = assay: Antifungal activity against Aspergillus flavus at 200 ug/ml after 72 to 96 hrs by twofold serial dilution method; format: functional, organism-based
Structure (SMILES),MIC (Candida albicans),MIC (Vibrio cholerae),MIC (Candida [1]),MIC (Pseudomonas aeruginosa),MIC (Staphylococcus aureus [2]),MIC (Candida [3]),MIC (Aspergillus flavus [4]),MIC (Escherichia coli [5]),MIC (Streptococcus),MIC (Candida [6]),MIC (Escherichia coli [7]),MIC (Staphylococcus aureus [8]),MIC (Aspergillus flavus [9])
COc1ccc(C2CC(=NN3C(=O)CNC3=S)CC(c3ccc(OC)cc3)N2)cc1 (configuration not stated),12.5 µg/mL,100 µg/mL,inactive,100 µg/mL,50 µg/mL,6.25 µg/mL,12.5 µg/mL,50 µg/mL,100 µg/mL,–,–,–,–
O=C1CNC(=S)N1N=C1CC(c2ccc(F)cc2)NC(c2ccc(F)cc2)C1 (configuration not stated),50 µg/mL,6.25 µg/mL,–,6.25 µg/mL,50 µg/mL,50 µg/mL,12.5 µg/mL,12.5 µg/mL,6.25 µg/mL,50 µg/mL,–,–,–
Cc1ccc(C2C/C(=N\N3C(=O)CNC3=S)C(C)(C)C(c3ccc(C)cc3)N2)cc1 (configuration not stated),25 µg/mL,25 µg/mL,–,100 µg/mL,25 µg/mL,6.25 µg/mL,25 µg/mL,50 µg/mL,25 µg/mL,12.5 µg/mL,–,–,–
COc1ccc(C2C/C(=N\N3C(=O)CNC3=S)C(C)C(c3ccc(OC)cc3)N2)cc1 (configuration not stated),50 µg/mL,25 µg/mL,–,25 µg/mL,50 µg/mL,12.5 µg/mL,12.5 µg/mL,100 µg/mL,25 µg/mL,12.5 µg/mL,–,–,–
CC1/C(=N/N2C(=O)CNC2=S)CC(c2ccc(F)cc2)NC1c1ccc(F)cc1 (configuration not stated),6.25 µg/mL,12.5 µg/mL,–,6.25 µg/mL,6.25 µg/mL,12.5 µg/mL,6.25 µg/mL,12.5 µg/mL,12.5 µg/mL,6.25 µg/mL,–,–,–
CC1(C)/C(=N/N2C(=O)CNC2=S)CC(c2ccc(Cl)cc2)NC1c1ccc(Cl)cc1 (configuration not stated),50 µg/mL,12.5 µg/mL,–,25 µg/mL,25 µg/mL,50 µg/mL,25 µg/mL,50 µg/mL,12.5 µg/mL,50 µg/mL,–,–,–
O=C(O)c1cn(C2CC2)c2cc(N3CCNCC3)c(F)cc2c1=O [CIPROFLOXACIN],–,50 µg/mL,–,–,–,–,–,25 µg/mL,50 µg/mL,–,–,–,–
CC1/C(=N/N2C(=O)CNC2=S)CC(c2ccc(Cl)cc2)NC1c1ccc(Cl)cc1 (configuration not stated),50 µg/mL,50 µg/mL,–,50 µg/mL,6.25 µg/mL,50 µg/mL,12.5 µg/mL,50 µg/mL,50 µg/mL,12.5 µg/mL,–,–,–
CC1(C)/C(=N/N2C(=O)CNC2=S)CC(c2ccc(F)cc2)NC1c1ccc(F)cc1 (configuration not stated),50 µg/mL,6.25 µg/mL,–,6.25 µg/mL,12.5 µg/mL,50 µg/mL,25 µg/mL,6.25 µg/mL,6.25 µg/mL,50 µg/mL,–,–,–
O=C1CNC(=S)N1N=C1CC(c2ccc(Cl)cc2)NC(c2ccc(Cl)cc2)C1 (configuration not stated),50 µg/mL,6.25 µg/mL,–,6.25 µg/mL,50 µg/mL,12.5 µg/mL,50 µg/mL,12.5 µg/mL,6.25 µg/mL,25 µg/mL,–,–,–
COc1ccc(C2C/C(=N\N3C(=O)CNC3=S)C(C)(C)C(c3ccc(OC)cc3)N2)cc1 (configuration not stated),12.5 µg/mL,50 µg/mL,–,50 µg/mL,200 µg/mL,25 µg/mL,6.25 µg/mL,–,50 µg/mL,6.25 µg/mL,inactive,–,–
CC1/C(=N/N2C(=O)CNC2=S)CC(c2ccccc2)NC1c1ccccc1 (configuration not stated),50 µg/mL,100 µg/mL,–,50 µg/mL,200 µg/mL,50 µg/mL,50 µg/mL,50 µg/mL,100 µg/mL,50 µg/mL,–,–,–
Cc1ccc(C2CC(=NN3C(=O)CNC3=S)CC(c3ccc(C)cc3)N2)cc1 (configuration not stated),12.5 µg/mL,100 µg/mL,–,25 µg/mL,–,6.25 µg/mL,6.25 µg/mL,200 µg/mL,100 µg/mL,6.25 µg/mL,–,inactive,–
CC1(C)/C(=N/N2C(=O)CNC2=S)CC(c2ccccc2)NC1c1ccccc1 (configuration not stated),50 µg/mL,25 µg/mL,–,100 µg/mL,100 µg/mL,100 µg/mL,–,100 µg/mL,25 µg/mL,50 µg/mL,–,–,inactive
Cc1ccc(C2C/C(=N\N3C(=O)CNC3=S)C(C)C(c3ccc(C)cc3)N2)cc1 (configuration not stated),50 µg/mL,50 µg/mL,–,50 µg/mL,25 µg/mL,6.25 µg/mL,12.5 µg/mL,50 µg/mL,50 µg/mL,12.5 µg/mL,–,–,–
O=C1CNC(=S)N1N=C1CC(c2ccccc2)NC(c2ccccc2)C1 (configuration not stated),12.5 µg/mL,50 µg/mL,–,50 µg/mL,100 µg/mL,50 µg/mL,12.5 µg/mL,50 µg/mL,50 µg/mL,100 µg/mL,–,–,–
OC(Cn1cncn1)(Cn1cncn1)c1ccc(F)cc1F [FLUCONAZOLE],50 µg/mL,–,–,–,–,25 µg/mL,50 µg/mL,–,–,25 µg/mL,–,–,–

# Source: ChEMBL document CHEMBL1153210, “Synthesis, spectral analysis and in vitro microbiological evaluation of 3-(3-alkyl-2,6-diarylpiperin-4-ylidene)-2-thioxoimidazolidin-4-ones as a new class of antibacterial and antifungal agents” (2010)
